# Measured values as given in patent publication US9867841B2, “Compounds, compositions and methods using E-selectin antagonists for mobilization of hematopoietic cells” (GLYCOMIMETICS, INC., priority 2012, dated 2018).
# Tested on: WBC, lymphocytes, monocytes, eosinophils, and neutrophils in circulation
# Assay: Mobilization of blood cells in CD-1 mice (Example 5, FIG. 5)
# Type: in vivo
# Details: AMD3100 dosed at 3 mg/kg
# Experimental: Blood was collected from the animals at 2, 3, and 6 hours post dosing and analyzed for levels of total white blood cells (WBC) (Figure SA), neutrophils (FIG. 5B), eosinophils (FIG. 5C), lymphocytes (FIG. 5D), monocytes (FIG. 5E).
# Blood was collected from the animals at 2, 3, and 6 hours post dosing and analyzed for levels of blood cells (WBC, lymphocytes, monocytes, eosinophils, and neutrophils) by standard CBC differential analyses methods.
smiles,measurement,value
c1cc(CN2CCCNCCNCCCNCC2)ccc1CN1CCCNCCNCCCNCC1 [AMD3100],level and timing of WBC mobilization compared with Compound 25,generally equivalent to that elicited by Compound 25
